In US20140088052A1, “CHALCONE DERIVATIVES AS NRF2 ACTIVATORS” (THE JOHNS HOPKINS UNIVERSITY, priority 2011, published 2014):

Assays:
Nrf2 = assay: In vivo potency to activate Nrf2: GCLM and NQO1 expression in mouse small intestine; design: species or system mice (C57BL/6); settings: mice, single dose 50 mg/kg by gavage, 24 h
Protocol: Mice (n=4) were fed with vehicle (DCP-10% DMSO+10% Cremophor+80% phosphate buffered saline) or chalcone derivatives or sulforaphane (50 mg/kg body weight) by gavage, and the small intestines were harvested 24 hours later. The expression of Nrf2-regulated genes GCLM and NQO1 was analyzed in the tissues by qRT-PCR as a surrogate marker of Nrf2 activity. β-actin was used for normalization. Data are representative of three independent experiments. Values shown are mean±SD of triplicate wells (P≦0.05);
The potency of the 8 lead chalcones identified in the in vitro screening to activate Nrf2 pathway were evaluated in mouse models. First, various formulations to dissolve the compounds were evaluated, and the DCP (10% DMSO+10% Cremophor EL+80% phosphate buffered saline) formulation offered the maximum solubility for delivery of these compounds by oral route. Mice (C57BL/6) were administrated with a single dose of vehicle or test compound(s) or sulforaphane as the positive control at a dose of 50 mg/kg body weight by gavage and small intestines were harvested 24 h later. The expression of Nrf2-regulated genes GCLM and NQO1 was analyzed in the tissue by qRT-PCR. All the eight compounds tested increased the expression of GCLM and NQO1 in small intestine. […] The expression of GCLM and NQO1 in the small intestine of mice treated with 2b was 6-fold and 10-fold higher compared to vehicle, respectively. Similarly, the expression of GCLM and NQO1 in the small intestine treated with 2b was 3-fold and 5-fold higher compared to sulforaphane, respectively.
All experiments in mice were performed in accordance with the standards established by the U.S. Animal Welfare Acts, set forth in NIH guidelines and the Policy and Procedures Manual of the Johns Hopkins University Animal Care and Use Committee. C57BL/6 mice (male, 7 weeks) were maintained on AIN 76A diet (Harlan Tekland, Madison, Wis.) and water ad libitum and housed at a temperature (range, 20-23° C.) under 12 h light/dark cycles. The mice were treated with chalcone analogs (50 mg/kg body weight) or vehicle or sulforaphane as a positive control by gavage. After 24 h treatment, the small intestines were harvested and stored at −80° C. until analysis.
Total RNA was extracted from cells/tissue using Qiagen RNeasy kit (Qiagen Corporation, Valencia, Calif.) and reverse transcription was performed by using random hexamers and MultiScribe reverse transcriptase according to the manufacturer's recommendations (Applied Biosystems, Foster City, Calif., USA). Quantitative real-time RT-PCR analyses of Nrf2, NQO1, HO1, and GCLM were performed by using Assay-on-Demand primers and probe sets from Applied Biosystems. Assays were performed using the ABI 7000 Taqman system (Applied Biosystems, Foster City, Calif.). β-actin was used for normalization.

hematopoietic stem cells = assay: Bone marrow mononuclear cells and hematopoietic stem cells in irradiated mice; assay type: in vivo; settings: 6.9Gy, single dose 24 h after irradiation, compared to vehicle
[1] = test system: LPS-induced TNF-α secretion; assay: LPS-induced TNF-α secretion by mouse peritoneal macrophages; assay type: cell-based, mice; settings: 5 μM or 10 μM for 16-20 h, LPS 100 ng/mL 4 h, compared to vehicle
Protocol: After 4 h, TNF-α secretion in cell-free media by macrophages was analyzed by ELISA.

## COc1ccccc1C(=O)/C=C/c1ccccc1C(F)(F)F [Compound 2b, (E)-1-(2-methoxyphenyl)-3-(2-(trifluoromethyl)phenyl)prop-2-en-1-one]
Nrf2
  expression of GCLM in the small intestine, compared to sulforaphane: 3 fold
  expression of GCLM in the small intestine, compared to vehicle: 6 fold
  expression of NQO1 in the small intestine, compared to sulforaphane: 5 fold
  expression of NQO1 in the small intestine, compared to vehicle: 10 fold
Nrf2; in words
  expression of GCLM and NQO1 in small intestine (Nrf2 activity): most potent inducer of Nrf2 activity
Hematopoietic stem cells; analysed 24 h after treatment
  total BM-MNC per limb and total HSPC, HSC and MPP: significantly higher
Hematopoietic stem cells
  viable hematopoietic stem cells (colony forming cells assay): increased number of hematopoietic stem cells
[1]
  LPS-induced TNF-α secretion by macrophages (ELISA): significant decrease in LPS-induced TNF-α secretion
